# Laboratory results as given in paper PMC3827738 (Biochimica et biophysica acta, 2010).
# Target: cytochrome bo3 (cbo3), ubiquinol oxidase (Escherichia coli, UniProt P0ABI8)
# Type: biochemical
# Chain of cytochrome bo3 (cbo3), ubiquinol oxidase (P0ABI8 whole entry): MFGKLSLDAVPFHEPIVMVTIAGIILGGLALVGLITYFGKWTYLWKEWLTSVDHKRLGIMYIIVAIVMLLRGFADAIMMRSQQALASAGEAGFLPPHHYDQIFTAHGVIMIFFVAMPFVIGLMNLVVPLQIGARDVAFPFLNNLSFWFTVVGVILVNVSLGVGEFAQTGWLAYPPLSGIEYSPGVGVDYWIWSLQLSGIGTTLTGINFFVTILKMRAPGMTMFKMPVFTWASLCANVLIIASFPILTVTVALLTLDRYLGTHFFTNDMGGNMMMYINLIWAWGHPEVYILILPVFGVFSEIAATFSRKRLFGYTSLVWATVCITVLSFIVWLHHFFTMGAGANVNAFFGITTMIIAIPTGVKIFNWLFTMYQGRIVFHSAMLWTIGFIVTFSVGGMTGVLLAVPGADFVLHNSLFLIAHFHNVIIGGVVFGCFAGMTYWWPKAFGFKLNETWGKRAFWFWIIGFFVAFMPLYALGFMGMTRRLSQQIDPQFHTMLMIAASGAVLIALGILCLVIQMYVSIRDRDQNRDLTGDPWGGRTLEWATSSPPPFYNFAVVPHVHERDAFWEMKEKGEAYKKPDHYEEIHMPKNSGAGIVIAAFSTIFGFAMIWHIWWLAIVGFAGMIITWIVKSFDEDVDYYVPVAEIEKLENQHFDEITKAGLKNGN
# Chain of cytochrome bo3 (cbo3), ubiquinol oxidase (P0ABJ1 25-315 partner): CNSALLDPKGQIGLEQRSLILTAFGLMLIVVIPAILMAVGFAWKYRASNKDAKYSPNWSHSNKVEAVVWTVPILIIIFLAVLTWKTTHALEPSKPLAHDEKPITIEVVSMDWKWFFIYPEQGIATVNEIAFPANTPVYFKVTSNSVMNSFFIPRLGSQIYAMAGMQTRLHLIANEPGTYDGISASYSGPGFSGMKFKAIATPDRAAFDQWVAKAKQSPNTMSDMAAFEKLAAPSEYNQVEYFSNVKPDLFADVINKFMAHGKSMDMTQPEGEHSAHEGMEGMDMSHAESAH
# Chain of cytochrome bo3 (cbo3), ubiquinol oxidase (P0ABJ3 whole entry partner): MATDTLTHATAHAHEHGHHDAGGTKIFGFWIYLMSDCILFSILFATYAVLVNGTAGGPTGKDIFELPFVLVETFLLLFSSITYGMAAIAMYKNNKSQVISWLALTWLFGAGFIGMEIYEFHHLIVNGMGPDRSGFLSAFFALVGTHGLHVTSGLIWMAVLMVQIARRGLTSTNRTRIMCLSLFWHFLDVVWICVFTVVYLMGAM
# Chain of cytochrome bo3 (cbo3), ubiquinol oxidase (P0ABJ6 whole entry partner): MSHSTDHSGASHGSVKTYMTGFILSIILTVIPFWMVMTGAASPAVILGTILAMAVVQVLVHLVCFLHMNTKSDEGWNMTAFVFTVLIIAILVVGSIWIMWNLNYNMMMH
smiles,measurement,value
CCCCCCCc1cc(O)c2ccccc2[n+]1[O-] [2-n-Heptyl-4-hydroxyquinoline N-oxide],IC50,28.7 ± 2.1 µM
